The results in this text go back to publication PMC11769294, “(E)-1-(3-(3-Hydroxy-4-Methoxyphenyl)-1-(3,4,5-Trimethoxyphenyl)allyl)-1H-1,2,4-Triazole and Related Compounds: Their Synthesis and Biological Evaluation as Novel Antimitotic Agents Targeting Breast Cancer” (Pharmaceuticals, 2025).

One assay has as its system A498 (Renal Cancer). Nature of the assay: NCI60 screen (SRB). It is filed as cell-based, human. Conditions: one dose 10 µM, 48 h.
The next assay relates to SF-539 (CNS Cancer). In words: NCI60 screen (SRB). The note with it: one dose 10 µM, 48 h. It is filed as cell-based, human.
Another assay relates to RPMI-8226 (Leukemia). In words: NCI60 screen (SRB). It is filed as cell-based, human. Conditions: one dose 10 µM, 48 h.
Another assay deals with SW-620 (Colon Cancer). Nature of the assay: NCI60 screen (SRB). It is filed as cell-based, human. Conditions: one dose 10 µM, 48 h.
The test system of another assay is SF-295 (CNS Cancer). Nature of the assay: NCI60 screen (SRB). It is filed as cell-based, human. The note with it: one dose 10 µM, 48 h.
A further assay concerns MOLT-4 (Leukemia). Nature of the assay: NCI60 screen (SRB). It is filed as cell-based, human. Conditions: one dose 10 µM, 48 h.
The subject of another assay is HCT-116 (Colon Cancer). In words: NCI60 screen (SRB). It is filed as cell-based, human. The note with it: one dose 10 µM, 48 h.
Another assay deals with UO-31 (Renal Cancer). In words: NCI60 screen (SRB). It is filed as cell-based, human. The note with it: one dose 10 µM, 48 h.
For a further assay, the system named is LOX IMVI (Melanoma). In words: NCI60 screen (SRB). It is filed as cell-based, human. The note with it: one dose 10 µM, 48 h.
Another assay has as its system SR (Leukemia). Nature of the assay: NCI60 screen (SRB). It is filed as cell-based, human. Conditions: one dose 10 µM, 48 h.
A further assay has as its system breast cancer panel. Nature of the assay: NCI60 screen (SRB), panel mean. It is filed as cell-based, human. Conditions: BC panel; one dose 10 µM; 48 h.
Assay [1] deals with MCF-7 breast cancer cells. In words: alamarBlue cell viability assay. The note with it: Homo sapiens, MCF7; MCF-7; 1 μM; 72 h; read-out: viable cells. It is filed as cell-based. Here is the method: Figure 5 Preliminary cell viability data for Series 1: (A) compounds 22a–22g and chalcone 20b and Series 2: (B) compounds 23a–e and chalcone 20b in MCF-7 breast cancer cells. Cell proliferation of MCF-7 cells was determined with an alamarBlue assay (seeding density 2.5 × 10^4 cells/mL per well for 96-well plates). Compound concentrations of either 1 or 0.1 μM for 72 h were used to treat the cells (in triplicate) with control wells containing vehicle ethanol (1% v/v). The mean value ± SEM for three independent experiments is shown. The positive controls used are CA-4 and phenstatin (1.0 μM and 0.1 μM). Statistical analysis was performed using One-way ANOVA with the Sidak multiple comparison test (***, p < 0.001).
HL-60 cells were suspension cells and the seeding density for the viability assay was 25,000 cells/mL. MCF-7 cells (adherent) were cultured in Minimum Essential Media (MEM) with GlutaMAX™-I, supplemented with 1% (v/v) non-essential amino acids, 10% (v/v) fetal bovine serum (FBS), purchased from BD Biosciences (Edmund Halley Road, Oxford, UK), and 1% (v/v) penicillin/streptomycin 5000 U/mL. The MCF-7 cells used in the screening of the compounds during these experiments were mycoplasma-free. The seeding density of MCF-7 in the viability assay was 25,000 cells/mL and 50,000 cells/mL in the FACS assay. Normal breast cells (MCF-10A) (adherent) were cultured in Dulbecco’s Modified Eagle Medium: Nutrient Mixture F-12 (DMEM/F12; Gibco) supplemented with 5% horse serum (Invitrogen, Waltham, MA, USA), 20 ng/mL epidermal growth factor (Merck Millipore, Burlington, MA, USA), 0.5 μg/mL hydrocortisone (Sigma, Kanagawa, Japan), 100 ng/mL cholera toxin (Sigma), 10 μg/mL insulin (Sigma), and penicillin/streptomycin 5000 U/mL (1%) (Gibco, Waltham, MA, USA). […] MDA-MB-231 cells were cultured in Dulbecco’s Modified Eagle Medium, which was supplemented with 10% (v/v) fetal bovine serum (FBS) and 1% (v/v) penicillin/streptomycin 5000 U/mL. When not in use, all cells were kept in liquid nitrogen and frozen in a freezing media made of 90% FBS and 10% DMSO. All cells were grown in an atmosphere of 5% CO2/95% air in T75 culture flasks. The media was changed every 2–3 days and media was always prewarmed to 37 °C. All were sub-cultured every 3–4 days by trypsinization using TrypLE™ Express enzyme when confluence was reached to allow growth, prevent excessive cell death, and minimize the risk of infections derived by over-confluence. For the cell viability assay, the number of cells per milliliter was 25,000 cells/mL while the FACS assay utilized 50,000 cells/mL. Cells were maintained at 37 °C in 5% CO2 in a humidified incubator.
The biochemical assays were performed in triplicate and on at least three independent occasions to facilitate the determination of mean values. For the viability assay, cells were grown until 80% confluent. Adherent cells such as MCF-7, MDA-MB-231, and MCF-10A were trypsinized to detach them from the flask, counted as previously described, and seeded in 96 well plates with a seeding density of 25,000 cells /mL (200 µL of suspension in each well so that the final number of cells per well was 5000) and 1 × 10^4 cells/well seeding density for suspension HL-60 cells. Adherent cells were incubated for 24 h after being seeded in the 96 well plate and treated on the following day, while suspension cells were treated on the same day of the seeding. In both cases, the incubation time after the treatment with the drug was 72 h. After 68 h incubation, the AlamarBlue was added (20 µL in each well) and the incubation time was completed. After 72 h, the change in color was measured by spectrofluorimetry at an excitation wavelength of 544 nm and emission wavelength of 590 nm. AlamarBlue is a cell viability indicator containing a compound called resazurin. AlamarBlue is water soluble, stable in culture media, non-toxic, and is permeable through the cell membrane. […]
On the technique in general: Alamar Blue is a resazurin reagent that responds to reducing activity.

For the next assay, the system named is SK-OV-3 (Ovarian Cancer). Nature of the assay: NCI60 screen (SRB). It is filed as cell-based, human. Conditions: one dose 10 µM, 48 h.
Assay [2] relates to EKVX (Non-Small Cell Lung Cancer). Nature of the assay: NCI60 screen (SRB). It is filed as cell-based, human. The note with it: one dose 10 µM, 48 h.
Assay [3] has as its system NCI-H522 (Non-Small Cell Lung Cancer). Nature of the assay: NCI60 screen (SRB). It is filed as cell-based, human. The note with it: one dose 10 µM, 48 h.
A further assay deals with COLO 205 (Colon Cancer). Nature of the assay: NCI60 screen (SRB). The note with it: one dose 10 µM, 48 h. It is filed as cell-based, human.
The test system of a further assay is SNB-75 (CNS Cancer). Nature of the assay: NCI60 screen (SRB). The note with it: one dose 10 µM, 48 h. It is filed as cell-based, human.
The subject of the next assay is OVCAR-8 (Ovarian Cancer). In words: NCI60 screen (SRB). Conditions: one dose 10 µM, 48 h. It is filed as cell-based, human.
Assay [4] relates to NCI-H322M (Non-Small Cell Lung Cancer). In words: NCI60 screen (SRB). It is filed as cell-based, human. Conditions: one dose 10 µM, 48 h.

In the case of `COc1cc(/C=C/C(/C=C/c2cc(OC)c(OC)c(OC)c2)n2ccnc2)cc(OC)c1OC` [Compound 30, 1-((1E,4E)-1,5-bis(3,4,5-trimethoxyphenyl)penta-1,4-dien-3-yl)-1H-imidazole], the growth percent in the assay on A498 (Renal Cancer) is listed as 104.55%; in the assay with SF-539 (CNS Cancer) it was 93.55%; with RPMI-8226 (Leukemia) it was 60.48%; in the assay with SW-620 (Colon Cancer), 88.00%; in the assay on SF-295 (CNS Cancer), 95.73%; with MOLT-4 (Leukemia), 74.07%. The growth percent in the assay on HCT-116 (Colon Cancer) was found to be 78.18%; in the assay with UO-31 (Renal Cancer), 66.56%; in the assay on LOX IMVI (Melanoma) it was 85.14%; with SR (Leukemia), 31.50%; in the assay with SK-OV-3 (Ovarian Cancer) it was 92.06%; in [2], 94.43%. For the same compound, the growth percent is 64.75% in [3]; 99.42% in the assay with COLO 205 (Colon Cancer); 54.99% in the assay on SNB-75 (CNS Cancer); 83.74% with OVCAR-8 (Ovarian Cancer); 96.68% in assay [4]. The mean growth percentage in the assay with breast cancer panel stood at 71.5%. For the same compound, in assay [1], the viability at 1 µM came to 77%.
